# From PMC10035370, “Targeting Tumor Angiogenesis with the Selective VEGFR-3 Inhibitor EVT801 in Combination with Cancer Immunotherapy” (Cancer Research Communications, 2022)
# Assays:
# DEN-induced liver tumor = assay: N-diethylnitrosamine-induced hepatocarcinoma mouse model; type: in vivo, mice; conditions: 30 mg/kg daily for 2 months
# Method: After weighing, 38 male C3/H mice received a 10 mg/kg dose of N-diethylnitrosamine (DEN) intraperitoneally, whereas a group of 5 animals was kept without DEN injection as control group. After 12 months, mice that received DEN injection were randomized by weight in two groups of each 19 animals. The mice were dosed daily orally for 2 months either with EVT801 or vehicle. On the day of termination, mice treated with EVT801 received a last dose of 30 mg/kg to take blood and tumor samples for compound concentration determination. After incision of the peritoneal cavity, blood was taken from the vena cava. Following excision and weighing of the liver, the number of tumors per liver was counted. The tumor burden was calculated as the sum of individual tumor volumes for each mouse. No blood sampling was performed on control and vehicle groups. Plasma and tumor samples were stored at −20°C until analysis. Concentration of EVT801 was determined by LC/MS-MS.
# [1] = Blood pressure in telemetered rat model of hypertension; type: in vivo; conditions: single oral administration of 10, 30 or 100 mg/kg
# Method: Supplementary Figure 8. EVT801 and sorafenib show opposing effects on blood pressure in rats. (A) Monitoring of the blood pressure over 24 h after single oral administration of 100 mg/kg EVT801 or 500 mg/kg of EVT801, compared to animals treated with vehicle. (B) Monitoring of the blood pressure over 24 h after single oral administration of 10 mg/kg sorafenib, 30 mg/kg sorafenib or 100 mg/kg of sorafenib, compared to animals treated with vehicle.
# NCI-H1703 cells = assay: NCI-H1703 viability (ATP reduction); type: cell-based; conditions: Homo sapiens, in vitro
# Method: NCI-H1703 were seeded in 96-well plates coated with 0.3 % gelatin (5 x 10^3 cells per well) and were incubated in RPMI 0.1 % FCS with VEGF-C (300 ng/mL) or VEGF-D (300 ng/mL) in the absence or presence of increasing doses of EVT801. After 5 days, viable cells were quantified with the cell Titer-glo luminescent cell viability assay (Promega) as previously described (1).
# [2] = test system: NCI-H1703 tumor xenografts; assay: NCI-H1703 subcutaneous xenograft tumor mouse model; type: in vivo, mice; conditions: 30 mg/kg twice per day
# Method: A total number of 40 homozygous NOD.CB17 Prkdc^scid/NCrHsd mice were used for the xenograft tumor model. On the day of implantation, NCI-H1703 cells were harvested and suspended at a concentration of 1 × 10^8 cells per mL in an equal mix of Cultrex:RPMI without supplements. A volume of 100 μL was injected into the right hind flank of each animal. Tumor volumes were monitored until mean tumor volume reached 150 mm^3. Then, mice were stratified into four treatment groups of each 10 mice and orally dosed twice per day with either EVT801 30 mg/kg and EVT801 vehicle [Soluplus (BASF)/water/hydroxypropylcellulose SL (Nisso America)], or 30 mk/kg pazopanib and pazopanib vehicle (0.5% Hydroxypropyl methylcellulose trimellitate (HPMCT) + 0.1% Tween-80). A period of 8 hours was observed between the first and second daily dose.
# RT-HAM-001 tumors = assay: RT-001-HAM subcutaneous patient-derived xenograft tumor mouse model; type: in vivo, mice; conditions: 30 mg/kg twice per day, 7-day treatment
# Method: Patient-derived tumors of the same passage were transplanted subcutaneously outbred athymic (nu/nu) female HSD mice. When tumor volume reached 726 to 1,437 mm^3, 4 donor mice were sacrificed by cervical dislocation, and tumors were aseptically excised and dissected. After removing necrotic areas, tumor fragments of approximately 20 mm^3 were transferred to culture medium before grafting. A total of 108 mice were anesthetized with 100 mg/kg ketamine hydrochloride (Virbac) and 10 mg/kg xylazine (Bayer). Then, a tumor fragment was placed in the subcutaneous tissue of an incision at the level of the interscapular region as described previously ([30]). All mice from the same experiment were implanted on the same day. A total of 54 mice with RT-001-HAM established growing tumor (P6.0.0/0) between 62.5 and 196 mm^3 were allocated according to tumor volume, ensuring homogenous median and mean tumor volume in each treatment arm. Treatments with 5 mL/kg vehicle, 30 mg/kg EVT801, or 30 mg/kg pazopanib started 15 days after tumor implantation and continued twice per day until termination 7 days later. Tumor volumes were measured via a caliper three times a week during the treatment period. All animals were weighed at the same time as tumor size measurement. Plasma and fresh tumor samples were collected at different timepoints after final dose at day 7 from all mice.
# hLMVEC = assay: Growth factor-induced hLMVEC proliferation; type: cell-based, human; conditions: stimulation by the ligand
# Method: hLMVEC were seeded in white cell culture-treated flat and clear bottom multi-well plates and incubated at 37 °C overnight, before compounds were added. After incubation for 72 h at 37 °C, plates were equilibrated to ambient temperature for 1 h, and CellTiterGlo reagent (Promega) was added. After approximately 1h, luminescence was measured using a luminometer. Curves were fitted via sigmoidal dose response curves, and IC50 values were determined.
molecule,measurement,setting,value
"CNC(=O)c1cc(Oc2ccc(NC(=O)Nc3ccc(Cl)c(C(F)(F)F)c3)cc2)ccn1 [sorafenib, reference compound]","T/C ratio, tumor growth",DEN-induced liver tumor,32%
same,liver weight,DEN-induced liver tumor,reduced liver weight
same,effect on blood pressure,[1],showed the opposite effect
"Cc1ccc(Nc2nccc(N(C)c3ccc4c(C)n(C)nc4c3)n2)cc1S(N)(=O)=O [pazopanib, reference compound]",IC50,NCI-H1703 cells,0.09 µM
same,"CD31 IHC, tumor vessels",[2],decreased the number of vessels while increasing the proportion of larger ones
same,decrease of tumor weight compared with vehicle,[2]; endpoint,56%
same,"T/C ratio, tumor growth","[2]; oral, vs corresponding vehicle",53%
same,"T/C ratio, tumor volume",RT-HAM-001 tumors,77%
same,size of necrotic areas in tumors,RT-HAM-001 tumors,remained unaffected
same,hypoxic areas (CAIX) in tumors,RT-HAM-001 tumors; not statistically significant,showed opposing effects
"VEGF-D: VEGFR-3 ligand (protein, UniProt O43915 89-205, looked up) Vascular endothelial growth …: FAATFYDIETLKVIDEEWQRTQCSPRETCVEVASELGKSTNTFFKPPCVNVFRCGGCCNEESLICMNTSTSYISKQLFEISVPLTSVPELVPVKVANHTGCKCLPTAPRHPYSIIRR",increase in hLMVEC proliferation,hLMVEC,34%
"VEGF-C: VEGFR-3 ligand (protein, UniProt P49767 112-227, looked up) Vascular endothelial growth …: AHYNTEILKSIDNEWRKTQCMPREVCIDVGKEFGVATNTFFKPPCVSVYRCGGCCNSEGLQCMNTSTSYLSKTLFEITVPLSQGPKPVTISFANHTSCRCMSKLDVYRQVHSIIRR",increase in hLMVEC proliferation,hLMVEC,50%
